Patent US20190276872A1, “DETERMINATION OF INTERFERENTS IN A SAMPLE” (Roche Diagnostics Operations, Inc., priority 2016, published 2019)

Columns and labels:
Normal plasma pool [1] = test: APTT assay (Roche APTT LS on Roche cobas t 711 coagulation analyzer), spiked normal plasma pool; details: for effect of spiked amount on clotting time of APTT assay: increasing concentrations, normal plasma sample; for APTT result: normal plasma pool
Normal plasma pool [2] = test: Thrombin time assay (Roche Thrombin Time Reagent on Roche cobas t 711), spiked normal plasma pool; details: for effect of spiked amount on clotting time of thrombin time (TT) assay: increasing concentrations, normal plasma sample; for TT result: normal plasma pool
pathological plasma pool = test: Thrombin time assay (Roche Thrombin Time Reagent on Roche cobas t 711), spiked pathological plasma pool; details: for TT result: pathological plasma pool
Procedure: [The source words this procedure for another target and reports this target under the same test.] A TT result of 19 s would result in a conjugated bilirubin concentration x=4.95 mg/dL. The calibration curve shown above was generated by spiking increasing amount of bilic to a normal plasma sample.

In the case of `C=CC1=C(C)/C(=C/c2[nH]c(Cc3[nH]c(/C=C4\NC(=O)C(C)=C4C=C)c(C)c3CCC(=O)O)c(CCC(=O)O)c2C)NC1=O` [unconjugated bilirubin], the “effect of spiked amount on clotting time of APTT assay” value (from here on “effect … of APTT assay”) (Normal plasma pool [1]) was “influences APTT results only marginally”, the APTT result (Normal plasma pool [1]; spiked at 6.60 mg/dL) was 30.70 s and the APTT result (Normal plasma pool [1]; spiked at 13.20 mg/dL) was 31.10 s. The APTT result (Normal plasma pool [1]; spiked at 19.80 mg/dL) was 30.80 s, the APTT result (Normal plasma pool [1]; spiked at 26.40 mg/dL) was 30.80 s and the APTT result (Normal plasma pool [1]; spiked at 33.00 mg/dL) was 30.70 s. The APTT result (Normal plasma pool [1]; spiked at 39.60 mg/dL) was 30.50 s, the APTT result (Normal plasma pool [1]; spiked at 46.20 mg/dL) was 30.50 s and the APTT result (Normal plasma pool [1]; spiked at 52.80 mg/dL) was 30.30 s. For the same compound, the APTT result (Normal plasma pool [1]; spiked at 59.40 mg/dL) was 30.60 s, the APTT result (Normal plasma pool [1]; spiked at 66.00 mg/dL) was 30.30 s and the “effect of spiked amount on clotting time of thrombin time (TT) assay” value (shortened to “effect of spiked amount … (TT) assay”) (Normal plasma pool [2]) was “does not seem to influence thrombin time results”. For the same compound, the TT result (Normal plasma pool [2]; spiked at 6.60 mg/dL) was 16.30 s, the TT result (Normal plasma pool [2]; spiked at 13.20 mg/dL) was 16.30 s and the TT result (Normal plasma pool [2]; spiked at 19.80 mg/dL) was 16.00 s. For the same compound, the TT result (Normal plasma pool [2]; spiked at 26.40 mg/dL) was 16.40 s, the TT result (Normal plasma pool [2]; spiked at 33.00 mg/dL) was 16.40 s and the TT result (Normal plasma pool [2]; spiked at 39.60 mg/dL) was 16.40 s. It also gave a TT result (Normal plasma pool [2]; spiked at 46.20 mg/dL) of 16.40 s, a TT result (Normal plasma pool [2]; spiked at 52.80 mg/dL) of 16.60 s and a TT result (Normal plasma pool [2]; spiked at 59.40 mg/dL) of 16.50 s. It also gave a TT result (Normal plasma pool [2]; spiked at 66.00 mg/dL) of 16.60 s.

conjugated bilirubin was tested, and the “effect … of APTT assay” value (Normal plasma pool [1]) was “systematically prolonged”, the APTT result (Normal plasma pool [1]; spiked at 2.00 mg/dL) was 27.90 s and the APTT result (Normal plasma pool [1]; spiked at 4.00 mg/dL) was 28.40 s. The APTT result (Normal plasma pool [1]; spiked at 6.00 mg/dL) was 29.00 s, the APTT result (Normal plasma pool [1]; spiked at 8.00 mg/dL) was 29.70 s and the APTT result (Normal plasma pool [1]; spiked at 9.00 mg/dL) was 30.00 s. For the same compound, the APTT result (Normal plasma pool [1]; spiked at 10.00 mg/dL) was 30.50 s, the APTT result (Normal plasma pool [1]; spiked at 11.00 mg/dL) was 30.70 s and the APTT result (Normal plasma pool [1]; spiked at 12.00 mg/dL) was 31.10 s. The APTT result (Normal plasma pool [1]; spiked at 13.00 mg/dL) was 31.50 s, the APTT result (Normal plasma pool [1]; spiked at 15.00 mg/dL) was 32.20 s and the “effect of spiked amount … (TT) assay” value (Normal plasma pool [2]) was “systematically prolonged”. The TT result (Normal plasma pool [2]; spiked at 1.00 mg/dL) was 16.70 s, the TT result (Normal plasma pool [2]; spiked at 2.00 mg/dL) was 17.40 s and the TT result (Normal plasma pool [2]; spiked at 3.00 mg/dL) was 17.80 s. For the same compound, the TT result (Normal plasma pool [2]; spiked at 4.00 mg/dL) was 18.50 s, the TT result (Normal plasma pool [2]; spiked at 5.00 mg/dL) was 19.20 s and the TT result (Normal plasma pool [2]; spiked at 6.00 mg/dL) was 19.50 s. It also gave a TT result (Normal plasma pool [2]; spiked at 7.00 mg/dL) of 20.00 s, a TT result (Normal plasma pool [2]; spiked at 8.00 mg/dL) of 20.50 s and a TT result (Normal plasma pool [2]; spiked at 9.00 mg/dL) of 21.30 s. For the same compound, the TT result (Normal plasma pool [2]; spiked at 10.00 mg/dL) was 21.70 s.

For hemoglobin, the “effect of spiked amount … (TT) assay” value (pathological plasma pool; increasing concentrations, pathological plasma sample) was “systematically shortened”, the TT result (pathological plasma pool; spiked at 130.00 mg/dL) was 38.50 s and the TT result (pathological plasma pool; spiked at 260.00 mg/dL) was 38.10 s. The TT result (pathological plasma pool; spiked at 390.00 mg/dL) was 37.60 s, the TT result (pathological plasma pool; spiked at 520.00 mg/dL) was 36.70 s and the TT result (pathological plasma pool; spiked at 650.00 mg/dL) was 36.30 s. It also gave a TT result (pathological plasma pool; spiked at 780.00 mg/dL) of 35.70 s, a TT result (pathological plasma pool; spiked at 910.00 mg/dL) of 35.00 s and a TT result (pathological plasma pool; spiked at 1040.00 mg/dL) of 34.40 s. The TT result (pathological plasma pool; spiked at 1170.00 mg/dL) was 33.60 s, the TT result (pathological plasma pool; spiked at 1300.00 mg/dL) was 33.40 s and the “effect … of APTT assay” value (Normal plasma pool [1]) was “systematically shortened”. For the same compound, the APTT result (Normal plasma pool [1]; spiked at 130.00 mg/dL) was 28.40 s, the APTT result (Normal plasma pool [1]; spiked at 260.00 mg/dL) was 28.10 s and the APTT result (Normal plasma pool [1]; spiked at 390.00 mg/dL) was 27.90 s. The APTT result (Normal plasma pool [1]; spiked at 520.00 mg/dL) was 27.60 s, the APTT result (Normal plasma pool [1]; spiked at 650.00 mg/dL) was 27.40 s and the APTT result (Normal plasma pool [1]; spiked at 780.00 mg/dL) was 27.20 s. The APTT result (Normal plasma pool [1]; spiked at 910.00 mg/dL) was 26.70 s, the APTT result (Normal plasma pool [1]; spiked at 1040.00 mg/dL) was 26.30 s and the APTT result (Normal plasma pool [1]; spiked at 1170.00 mg/dL) was 26.20 s. For the same compound, the APTT result (Normal plasma pool [1]; spiked at 1300.00 mg/dL) was 25.70 s.
